The values below come from publication PMC10648852, “Molecular drivers of resistance to sulbactam-durlobactam in contemporary clinical isolates of Acinetobacter baumannii” (Antimicrobial Agents and Chemotherapy, 2023).

Read-outs that look alike come from different tables or passages of the source.

The test system of test [1] is A. baumannii KAB1544 and efflux overexpression mutants. Nature of the test: Broth microdilution MIC, isogenic A. baumannii overexpression efflux mutants. To be noted: for MIC: Acinetobacter baumannii. It is filed as cell-based. The procedure: (§1) To further assess the role of efflux in SUL-DUR activity against Acinetobacter spp., two panels of A. baumannii isogenic strains were tested. The first consisted of 7 members of an A. baumannii transposon library ([28]) with single gene disruptions in the adeABC, adeIJK, or adeT loci as compared to the parent strain, AB5075. […] This panel of strains consists of four different point mutants in AdeR and five different point mutants in AdeS, which result in the upregulation of AdeABC expression. In addition, this panel contains chromosomal deletions of adeL and adeN, which result in overexpression of AdeFGH and AdeIJK, respectively ([29]).
In contrast, sulbactam, SUL-DUR, and imipenem MIC values were unaffected by these mutants (Table 4).
(§2) The AB5075 parent strain as well as transposon interrupted AdeABC, AdeIJK, and AdeT were purchased from the Manoil laboratory at the University of Washington from their arrayed transposon mutant collection ([28]). The KAB1544 parent as well as efflux pump regulator mutants and deletions were constructed as previously described ([29]).
(§3) Antimicrobial susceptibility testing was performed using broth microdilution following standardized methods established by the Clinical Laboratory Standards Institute (CLSI) ([35], [36]). Quality control testing was performed as specified by CLSI using A. baumannii NCTC 13304 ([35]). MIC values were interpreted using CLSI breakpoints for all antimicrobial agents except those for which CLSI breakpoints are not available ([35]). SUL-DUR was tested as twofold dilutions of sulbactam in combination with a fixed concentration of 4 µg/mL durlobactam ([35]).

Test [2] concerns A. baumannii AB5075 and transposon mutants in efflux genes. Description: Broth microdilution MIC, isogenic A. baumannii transposon mutants in efflux genes. The test is classed as cell-based. To be noted: for In vitro activity (MIC): tested in duplicate. The procedure: as §1
The parent and each isogenic mutant strain in both panels was measured for susceptibility to sulbactam, durlobactam, SUL-DUR, imipenem, and gentamicin. […].
as §2, §3

The subject of test [3] is A. baumannii PBP3 S395F. Nature of the test: Acylation rate constant (kinact/Ki), fluorescence anisotropy competition with BOCILLIN
To be noted: variant data from McLeod et al. (2018).

The subject of test [4] is A. baumannii PBP3 Q488K. The description is as above.
Test [5] relates to A. baumannii PBP3 N377Y. Described as above.
Test [6] deals with A. baumannii PBP3 H370Y. Described as above.
Test [7] has as its system A. baumannii PBP3 S395F. Further details: method as in McLeod et al. (2018). To be noted: average ± SD, ref McLeod et al. (2018); cited from earlier work.
Test [8] concerns isogenic A. baylyi ADP1 panel encoding wildtype or mutant PBP3. Description: Broth microdilution MIC, isogenic A. baylyi panel (PBP3 variants with or without overexpressed β-lactamases). It is filed as cell-based. To be noted: for MIC: Acinetobacter baylyi, A. baylyi. As for the experimental part:
To understand the effect of PBP3 variants on whole cell activity in the absence of other resistance determinants, the MIC values of sulbactam, SUL-DUR and comparator β-lactams were measured against an isogenic A. baylyi panel engineered to contain individual strains in which the endogenous PBP3 was replaced with the variant of interest.
Each of the A. baylyi panel members were then transformed with plasmids that constitutively expressed five distinct, representative β-lactamases commonly found in Acinetobacter clinical isolates (TEM-1, ADC-30, OXA-23, OXA-24 or OXA-66) and evaluated for changes in antibiotic susceptibility. […] . […] .
The isogenic A. baylyi panel used for chromosomal expression of various PBP3 mutants with or without constitutive expression of various β-lactamases were constructed as part of this study. The A. baylyi ADP1 PBP3 ORF was cloned into pUC19 with a gentamicin cassette inserted downstream of the PBP3 ORF for selection purposes. Additionally, 500 bp of flanking homology to the ADP1 genome were inserted upstream of the PBP3 ORF and downstream of the gentamicin cassette. […] Linear DNA consisting of the 500 bp upstream-PBP3-Gent-500 bp downstream fragment was cloned out of the pUC19 plasmid by PCR and used for transformation of the ADP1 strain. The strain was grown at 30°C overnight in LB medium shaking at 250 rpm. Seventy microliters of the overnight ADP1 culture were combined with 1 mL of fresh LB and 200 ng of linear DNA fragment and incubated for 5 h at 30°C and shaking at 200 rpm. Various dilutions of each culture were plated on LB agar supplemented with 10 µg/mL of gentamicin to select for transformants with successful chromosomal integrations. Integrants were verified by Sanger sequencing using purified genomic DNA.
For the constitutive expression of various β-lactamases, ORFs of bla TEM-1, bla ADC-30, bla OXA-23, bla OXA-24, and bla OXA-66 were cloned by PCR from various clinical strains that encode these genes and inserted into the pWH1266 plasmid modified to encode a kanamycin cassette for selection. These plasmids along with an empty vector were used to transform each of the A. baylyi ADP1 strains engineered above that encode wild-type PBP3 or variants. Transformations were carried out as done above with selection on LB agar supplemented with 20 µg/mL of kanamycin.
as §3

For test [9], the system named is A. baumannii PBP3 S390T. Further details: method as in McLeod et al. (2018). To be noted: average ± SD, ref McLeod et al. (2018); cited from earlier work.
Test [10] concerns A. baumannii PBP3 N392T. Nature of the test: Acylation rate constant (kinact/Ki), fluorescence anisotropy competition with BOCILLIN
Test [11] deals with A. baumannii PBP3 S390T. The test is described as above. To be noted: variant data from McLeod et al. (2018).
Test [12] has as its system A. baumannii wild-type PBP3. The description is as above. To be noted: Wildtype PBP3.
Setting [13] is: AdeR A91V, AdeABC overexpressed, read-out: MIC.
The mark [14] stands for this setting: AdeR D20N, AdeABC overexpressed, read-out: MIC.
[15] abbreviates: AdeR E219A, AdeABC overexpressed, read-out: MIC.
[16] abbreviates: AdeR P116L, AdeABC overexpressed, read-out: MIC.
The mark [17] stands for this setting: AdeS A94V, AdeABC overexpressed, read-out: MIC.
[18] abbreviates: AdeS G30D, AdeABC overexpressed, read-out: MIC.
[19] abbreviates: AdeS G103D, AdeABC overexpressed, read-out: MIC.
Where [20] appears, read: AdeS R152K, AdeABC overexpressed, read-out: MIC.
Where [21] appears, read: AdeS T153M, AdeABC overexpressed, read-out: MIC.
[22] abbreviates: Parent (KAB1544), no efflux pump overexpressed, read-out: MIC.

For the compound `CNC(C)C1CCC(N)C(OC2C(N)CC(N)C(OC3OCC(C)(O)C(NC)C3O)C2O)O1` (stereo not drawn) [gentamicin], the MIC in test [1] (setting [13]) was determined as 32 µg/mL; in [1] (setting [14]) it was 16 µg/mL; in [1] (setting [15]), 2 µg/mL; in test [1] (setting [16]), 16 µg/mL; in [1] (setting [17]), 16 µg/mL; in test [1] (setting [18]), 32 µg/mL. Also, the MIC worked out at 2 µg/mL in [1] (setting [19]); 16 µg/mL in test [1] (setting [20]); 32 µg/mL in test [1] (setting [21]); 2 µg/mL in test [1] (setting [22]); 2 µg/mL in test [1] (ΔadeL, AdeFGH overexpressed); 2 µg/mL in [1] (ΔadeN, AdeIJK overexpressed). In test [1] ({}), the “change in MIC values relative to the parent strain” value was 8- to 16 fold. The “MIC shift as compared to the parent strain” value was over 64 fold in test [2] (AdeA disruption, AB5075) and over 8 fold in [2] (AdeB disruption, AB5075). The In vitro activity (MIC) in test [2] (Parent (AB5075)) is over 64 µg/mL; in [2] (adeA::tn in AB5075) it was 1 µg/mL; in test [2] (adeB::tn in AB5075), 8 µg/mL; in test [2] (adeC::tn in AB5075), over 64 µg/mL; in test [2] (adeI::tn in AB5075), over 64 µg/mL; in test [2] (adeJ::tn in AB5075), over 64 µg/mL. For the same compound, the In vitro activity (MIC) in [2] (adeK::tn in AB5075) and in [2] (adeT::tn in AB5075) was over 64 µg/mL in each case.

In the case of `CC1=C[C@@H]2CN(C(=O)N2OS(=O)(=O)O)[C@@H]1C(N)=O` [durlobactam], the MIC in test [1] (setting [13]) stood at 32 µg/mL; in test [1] (setting [14]), 64 µg/mL; in [1] (setting [15]), 128 µg/mL; in [1] (setting [16]), 64 µg/mL; in [1] (setting [17]), 64 µg/mL; in test [1] (setting [18]) it was 64 µg/mL. Further, the MIC came to 64 µg/mL in test [1] (setting [19]); 64 µg/mL in test [1] (setting [20]); 32 µg/mL in test [1] (setting [21]); 128 µg/mL in test [1] (setting [22]); 64 µg/mL in test [1] (ΔadeL, AdeFGH overexpressed); 128 µg/mL in test [1] (ΔadeN, AdeIJK overexpressed). The In vitro activity (MIC) was found to be 128 µg/mL in [2] (Parent (AB5075)); 64 µg/mL in test [2] (adeA::tn in AB5075); 256 µg/mL in test [2] (adeB::tn in AB5075); 256 µg/mL in test [2] (adeC::tn in AB5075); 64 µg/mL in test [2] (adeI::tn in AB5075); 32 µg/mL in test [2] (adeJ::tn in AB5075). Further, the In vitro activity (MIC) in test [2] (adeK::tn in AB5075) came out at 32 µg/mL; in test [2] (adeT::tn in AB5075), 128 µg/mL. Besides, the “changes in MIC values as compared to the parent strain” value in test [2] (adeK::Tn mutant, AB5075) is 4 fold; in [2] ({}), 4 fold.

As to `C[C@H]1[C@H](NC(=O)/C(=N\OC(C)(C)C(=O)O)c2csc(N)n2)C(=O)N1S(=O)(=O)O` [aztreonam], the “% WT” value in test [3] worked out at 15.7%; in [4], 65.7%; in test [5], 72.9%; in test [6] it was 61.4%; in test [10], 22.9%; in test [11], 128.6%. The “% WT” value in test [12] amounted to 100%. Besides, the “k inact/K i” value in [4] (average ± SD) is 460 ± 50 ([2]) M^-1s^-1; in [5] (average ± SD), 510 ± 60 ([2]) M^-1s^-1; in [6] (average ± SD) it was 430 ± 30 ([2]) M^-1s^-1; in test [7] it was 110 ± 20 ([3]) M^-1s^-1; in test [9], 900 ± 300 ([3]) M^-1s^-1; in test [10] (average ± SD) it was 160 ± 20 ([2]) M^-1s^-1. The “k inact/K i” value in test [12] (average ± SD) is 700 ± 100 ([10]) M^-1s^-1. In addition, the MIC in test [8] (PBP3 H370Y, overexpressed ADC-30) was 32 µg/mL; in [8] (PBP3 H370Y, overexpressed OXA-23), 64 µg/mL; in test [8] (PBP3 H370Y, overexpressed OXA-24), 64 µg/mL; in test [8] (PBP3 H370Y, overexpressed OXA-66) it was 64 µg/mL; in [8] (PBP3 H370Y, overexpressed TEM-1), 64 µg/mL; in test [8] (PBP3 H370Y, β-lactamase None (empty vector)), 64 µg/mL. Also, the minimum inhibitory concentration (MIC) in [8] (PBP3 Wildtype, overexpressed ADC-30, read-out: MIC) came out at 32 µg/mL; in test [8] (PBP3 Wildtype, overexpressed OXA-23, read-out: MIC), 64 µg/mL; in test [8] (PBP3 Wildtype, overexpressed OXA-24, read-out: MIC), 32 µg/mL; in test [8] (PBP3 Wildtype, overexpressed OXA-66, read-out: MIC), 32 µg/mL; in test [8] (PBP3 Wildtype, overexpressed TEM-1, read-out: MIC), 32 µg/mL; in [8] (PBP3 Wildtype, β-lactamase None (empty vector), read-out: MIC), 32 µg/mL. The “changes in MIC values in the presence of β-lactamase” value in test [8] (wildtype PBP3 strain, five overexpressed β-lactamases) is given as at most 2 fold.
